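Interpolation was linear, between the two tested concentrations surrounding the appropriate level; five concentrations were tested over 48 hours in 96-well plates. Here, GI50 denotes the concentration required for 50% inhibition of growth.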 The source made the active and inactive calls. Cut-off read from the data, not from the text of the source: active = GI50 up to about 1.1 µM and inactive = higher.
How the values were obtained:
Test in all cases: inhibition of tumour cell growth, NCI panel, 48 h
UO-31 = tested on: UO-31
DLD-1 = tested on: DLD-1
A498 = tested on: A498
COLO 205 = tested on: COLO 205
CAKI-1 = tested on: CAKI-1
SNB-19 = tested on: SNB-19
OVCAR-3 = tested on: OVCAR-3
M19-MEL = tested on: M19-MEL
U-251 = tested on: U-251
NCI-H226 = tested on: NCI-H226
TK-10 = tested on: TK-10
DMS-273 = tested on: DMS-273
HT-29 = tested on: HT-29
ACHN = tested on: ACHN
SW-620 = tested on: SW-620
MOLT-4 = tested on: MOLT-4
M14 = tested on: M14
KM-20L2 = tested on: KM-20L2
CCRF-CEM = tested on: CCRF-CEM
HOP-92 = tested on: HOP-92
OVCAR-8 = tested on: OVCAR-8
HCT-15 = tested on: HCT-15
A549 = tested on: A549
LXFL 529 = tested on: LXFL 529
SF-539 = tested on: SF-539
NCI-H522 = tested on: NCI-H522
LOX IMVI = tested on: LOX IMVI
HCT-116 = tested on: HCT-116
RPMI-8226 = tested on: RPMI-8226
SNB-78 = tested on: SNB-78
SNB-75 = tested on: SNB-75
Malme-3M = tested on: Malme-3M
SN12C = tested on: SN12C
SK-MEL-28 = tested on: SK-MEL-28
HOP-62 = tested on: HOP-62
NCI-H23 = tested on: NCI-H23
UACC-62 = tested on: UACC-62
OVCAR-4 = tested on: OVCAR-4
OVCAR-5 = tested on: OVCAR-5
IGROV-1 = tested on: IGROV-1
HL-60 = tested on: HL-60
SF-295 = tested on: SF-295
SK-MEL-5 = tested on: SK-MEL-5
SK-OV-3 = tested on: SK-OV-3
EKVX = tested on: EKVX
SK-MEL-2 = tested on: SK-MEL-2
SR = tested on: SR
DMS-114 = tested on: DMS-114
SF-268 = tested on: SF-268
HOP-18 = tested on: HOP-18
UACC-257 = tested on: UACC-257
HCC 2998 = tested on: HCC 2998
786-0 = tested on: 786-0
XF498 = tested on: XF498
RXF 393 = tested on: RXF 393
KM12 = tested on: KM12
NCI-H460 = tested on: NCI-H460
K562 = tested on: K562

SMILES: CCOC(=O)/C(C#N)=C(N)/C(=N\Nc1cccc(C(F)(F)F)c1)C(=O)OCC
- GI50 (UO-31): > 100 µM (inactive)
- GI50 (DLD-1): > 100 µM (inactive)
- GI50 (A498): > 100 µM (inactive)
- GI50 (COLO 205): > 100 µM (inactive)
- GI50 (CAKI-1): > 100 µM (inactive)
- GI50 (SNB-19): > 100 µM (inactive)
- GI50 (OVCAR-3): > 100 µM (inactive)
- GI50 (M19-MEL): > 100 µM (inactive)
- GI50 (U-251): > 100 µM (inactive)
- GI50 (NCI-H226): > 100 µM (inactive)
- GI50 (TK-10): > 100 µM (inactive)
- GI50 (DMS-273): > 100 µM (inactive)
- GI50 (HT-29): > 100 µM (inactive)
- GI50 (ACHN): > 100 µM (inactive)
- GI50 (SW-620): > 100 µM (inactive)
- GI50 (MOLT-4): > 100 µM (inactive)
- GI50 (M14): > 100 µM (inactive)
- GI50 (KM-20L2): > 100 µM (inactive)
- GI50 (CCRF-CEM): > 100 µM (inactive)
- GI50 (HOP-92): > 100 µM (inactive)
- GI50 (OVCAR-8): > 100 µM (inactive)
- GI50 (HCT-15): > 100 µM
- GI50 (A549): > 100 µM (inactive)
- GI50 (LXFL 529): > 100 µM (inactive)
- GI50 (SF-539): > 100 µM (inactive)
- GI50 (NCI-H522): > 100 µM (inactive)
- GI50 (LOX IMVI): > 100 µM (inactive)
- GI50 (HCT-116): > 100 µM (inactive)
- GI50 (RPMI-8226): > 100 µM (inactive)
- GI50 (SNB-78): > 100 µM (inactive)
- GI50 (SNB-75): > 100 µM (inactive)
- GI50 (Malme-3M): > 100 µM (inactive)
- GI50 (SN12C): > 100 µM (inactive)
- GI50 (SK-MEL-28): > 100 µM (inactive)
- GI50 (HOP-62): > 100 µM (inactive)
- GI50 (NCI-H23): > 100 µM (inactive)
- GI50 (UACC-62): > 100 µM (inactive)
- GI50 (OVCAR-4): > 100 µM (inactive)
- GI50 (OVCAR-5): > 100 µM (inactive)
- GI50 (IGROV-1): > 100 µM (inactive)
- GI50 (HL-60): 75.9 µM (inactive)
- GI50 (SF-295): > 100 µM (inactive)
- GI50 (SK-MEL-5): > 100 µM (inactive)
- GI50 (SK-OV-3): > 100 µM (inactive)
- GI50 (EKVX): > 100 µM (inactive)
- GI50 (SK-MEL-2): > 100 µM (inactive)
- GI50 (SR): > 100 µM (inactive)
- GI50 (DMS-114): > 100 µM (inactive)
- GI50 (SF-268): > 100 µM (inactive)
- GI50 (HOP-18): > 100 µM (inactive)
- GI50 (UACC-257): > 100 µM (inactive)
- GI50 (HCC 2998): > 100 µM (inactive)
- GI50 (786-0): > 100 µM (inactive)

SMILES: COc1ccc(-c2cc(N3CCN(c4ccc(Cl)cc4)CC3)c(C#N)c(=O)o2)cc1
- GI50 (UO-31): 4.79 µM (inactive)
- GI50 (DLD-1): 25.8 µM (inactive)
- GI50 (A498): 16.4 µM (inactive)
- GI50 (COLO 205): > 100 µM (inactive)
- GI50 (CAKI-1): 8.71 µM (inactive)
- GI50 (SNB-19): 2.93 µM (inactive)
- GI50 (XF498): 3.09 µM (inactive)
- GI50 (U-251): 21.2 µM (inactive)
- GI50 (NCI-H226): 2.52 µM (inactive)
- GI50 (RXF 393): 5.12 µM (inactive)
- GI50 (TK-10): 16.5 µM (inactive)
- GI50 (DMS-273): 16.3 µM (inactive)
- GI50 (HT-29): > 100 µM (inactive)
- GI50 (ACHN): 6.64 µM (inactive)
- GI50 (SW-620): 40 µM (inactive)
- GI50 (M14): 35.1 µM (inactive)
- GI50 (KM-20L2): > 100 µM (inactive)
- GI50 (HOP-92): > 100 µM (inactive)
- GI50 (OVCAR-8): 5.28 µM (inactive)
- GI50 (HCT-15): 40.7 µM
- GI50 (A549): 10.1 µM (inactive)
- GI50 (LXFL 529): 16.7 µM (inactive)
- GI50 (SF-539): 3.55 µM (inactive)
- GI50 (LOX IMVI): 10.4 µM (inactive)
- GI50 (HCT-116): 12.6 µM (inactive)
- GI50 (RPMI-8226): 12.8 µM (inactive)
- GI50 (SNB-78): 11.7 µM (inactive)
- GI50 (SNB-75): 3.25 µM (inactive)
- GI50 (Malme-3M): 7.74 µM (inactive)
- GI50 (SN12C): 15.1 µM (inactive)
- GI50 (SK-MEL-28): 6.9 µM (inactive)
- GI50 (NCI-H23): 21.8 µM (inactive)
- GI50 (OVCAR-4): 2.45 µM (inactive)
- GI50 (KM12): > 100 µM (inactive)
- GI50 (OVCAR-5): > 100 µM (inactive)
- GI50 (IGROV-1): 10.9 µM (inactive)
- GI50 (HL-60): > 100 µM (inactive)
- GI50 (NCI-H460): 10.5 µM (inactive)
- GI50 (SF-295): 4.28 µM (inactive)
- GI50 (SK-MEL-5): 11.9 µM (inactive)
- GI50 (EKVX): 11.4 µM (inactive)
- GI50 (SK-MEL-2): 15.6 µM (inactive)
- GI50 (SR): > 100 µM (inactive)
- GI50 (DMS-114): 7.41 µM (inactive)
- GI50 (SF-268): 5.38 µM (inactive)
- GI50 (HOP-18): 4.24 µM (inactive)
- GI50 (UACC-257): 17.9 µM (inactive)
- GI50 (HCC 2998): 91.8 µM (inactive)

SMILES: CC(=O)Nc1ccc(-c2nnc(SCC(=O)Nc3ccccc3)o2)cc1
- GI50 (UO-31): 79.6 µM (inactive)
- GI50 (DLD-1): 59 µM (inactive)
- GI50 (COLO 205): > 100 µM (inactive)
- GI50 (CAKI-1): > 100 µM (inactive)
- GI50 (OVCAR-3): > 100 µM (inactive)
- GI50 (M19-MEL): 74.8 µM (inactive)
- GI50 (U-251): 43.7 µM (inactive)
- GI50 (NCI-H226): 82.4 µM (inactive)
- GI50 (RXF 393): 89.9 µM (inactive)
- GI50 (TK-10): > 100 µM (inactive)
- GI50 (DMS-273): 50.6 µM (inactive)
- GI50 (HT-29): 60.5 µM (inactive)
- GI50 (ACHN): > 100 µM (inactive)
- GI50 (SW-620): > 100 µM (inactive)
- GI50 (MOLT-4): > 100 µM (inactive)
- GI50 (M14): 86.3 µM (inactive)
- GI50 (KM-20L2): > 100 µM (inactive)
- GI50 (CCRF-CEM): 59.4 µM (inactive)
- GI50 (HOP-92): > 100 µM (inactive)
- GI50 (OVCAR-8): > 100 µM (inactive)
- GI50 (HCT-15): 92 µM
- GI50 (A549): > 100 µM (inactive)
- GI50 (LXFL 529): 34.6 µM (inactive)
- GI50 (SF-539): 71.1 µM (inactive)
- GI50 (NCI-H522): 60.3 µM (inactive)
- GI50 (LOX IMVI): 33.5 µM (inactive)
- GI50 (HCT-116): 31.2 µM (inactive)
- GI50 (RPMI-8226): 81.7 µM (inactive)
- GI50 (SNB-78): 80 µM (inactive)
- GI50 (SNB-75): > 100 µM (inactive)
- GI50 (Malme-3M): > 100 µM (inactive)
- GI50 (SN12C): 90.4 µM (inactive)
- GI50 (SK-MEL-28): > 100 µM (inactive)
- GI50 (HOP-62): > 100 µM (inactive)
- GI50 (NCI-H23): 39.5 µM (inactive)
- GI50 (UACC-62): 54.5 µM (inactive)
- GI50 (OVCAR-4): > 100 µM (inactive)
- GI50 (KM12): 65 µM (inactive)
- GI50 (OVCAR-5): > 100 µM (inactive)
- GI50 (K562): > 100 µM (inactive)
- GI50 (IGROV-1): 47.6 µM (inactive)
- GI50 (HL-60): 89.1 µM (inactive)
- GI50 (NCI-H460): > 100 µM (inactive)
- GI50 (SF-295): 77.6 µM (inactive)
- GI50 (SK-MEL-5): 69 µM (inactive)
- GI50 (SK-OV-3): > 100 µM (inactive)
- GI50 (SK-MEL-2): > 100 µM (inactive)
- GI50 (SR): > 100 µM (inactive)
- GI50 (DMS-114): 39.8 µM (inactive)
- GI50 (SF-268): > 100 µM (inactive)
- GI50 (HOP-18): > 100 µM (inactive)
- GI50 (UACC-257): 93.8 µM (inactive)
- GI50 (786-0): > 100 µM (inactive)

Reference: ChEMBL document CHEMBL1201862, “PubChem BioAssay data set” (2004)
